Data from PMC7098856 (British Journal of Clinical Pharmacology, 2020).
Values joined by “and” are separate entries in the source; they are usually repeats but may differ in a detail not shown here. Identical values can stand only once. Like-named read-outs stand apart in the source and are kept apart here.

What was measured:
[1] = cited from earlier work
[2] = tested on: P‐glycoprotein (P‐gp); conditions: in vitro; cited from earlier work
[3] = tested on: breast cancer resistance protein; conditions: in vitro; cited from earlier work
[4] = cited from earlier work; remark: listed apart in the source
[5] = Safety and tolerability; type: in vivo, patients with advanced solid tumours; conditions: both arms; talazoparib alone or together with itraconazole or rifampicin
[6] = Phase 1 dose escalation study; cited from earlier work
[7] = type: in vivo, patients with advanced solid tumours; conditions: for CL/F / variability of talazoparib Cmax: Arm B; for CL/F: geometric mean (CV%)
[8] = cited from earlier work; remark: listed apart in the source
[9] = population PK, cited from earlier work
[10] = tested on: enzymes or transporters; conditions: at therapeutic exposures; cited from earlier work
[11] = type: in vivo, patients with advanced solid tumours; conditions: for CL/F: geometric mean (CV%)
[12] = Safety and tolerability; type: in vivo, patients with advanced solid tumours; conditions: whole Arm B
[13] = talazoparib + rifampicin vs talazoparib alone
[14] = talazoparib + rifampicin vs talazoparib alone, listed as talazoparib
[15] = based on urinary excretion data, single 1 mg oral dose
[16] = coadministration of itraconazole
[17] = talazoparib + itraconazole vs talazoparib alone

In the case of Cn1ncnc1[C@H]1c2n[nH]c(=O)c3cc(F)cc(c23)N[C@@H]1c1ccc(F)cc1 [Talazoparib, talazoparib], the “effect of food on talazoparib AUCinf” value [1] is listed as “no effect”, the “effect of food on talazoparib Cmax” value [1] is listed as “reduced” and the “substrate for P-gp” value [2] is listed as “substrate”. For the same compound, the “substrate for breast cancer resistance protein” value [3] was “substrate”, the “patients who permanently discontinued treatment due to a haematological AE” value [4] was 1.4% and the “progression-free survival vs physician's choice of chemotherapy” value [4] was “statistically significant and clinically meaningful improvement”. For the same compound, the “patients with Grade 3–4 AEs (primarily haematological)” value ([4]; patients on talazoparib) was 55%, the overall tolerability [5] was “generally well tolerated” and the “maximum tolerated dose (MTD)” value [6] was 1 mg once daily (QD). The CL/F ([7]; single oral 1.0 mg talazoparib + rifampicin) was 12 5.2 (36.0) L/h, the CL/F ([7]; single oral 1.0 mg talazoparib alone) was 17 4.8 (34.0) L/h and the “variability of talazoparib Cmax” value ([7]; talazoparib alone) was 53%. The “variability of talazoparib Cmax” value ([7]; with rifampicin administration) was 71%, the “increase in talazoparib Cmax relative to talazoparib alone” value ([7]; coadministration of rifampicin) was “approximately 37%” and the Cmax ([7]; human, plasma, oral, 1 mg) was 6.01 ng/mL. It also gave a Cmax ([7]; human, plasma, po, 1 mg) of 6.01 ng/mL, a Tmax ([7]; human, plasma, po, 1 mg) of 1 h and a Vd/F ([7]; human, plasma, po, 1 mg) of 624 L. The half-life ([7]; human, plasma, po, 1 mg) was 92.1 h, the “AUCinf geometric mean ratio (test/reference), % (90% CI)” value [7, 13] was 102.0 (94.0, 110.7) % and the “AUClast geometric mean ratio (test/reference), % (90% CI)” value [7, 13] was 105.4 (98.0, 113.2) %. For the same compound, the “Cmax geometric mean ratio (test/reference), % (90% CI)” value [7, 13] was 136.6 (103.2, 180.9) %, the “AUCinf geometric mean ratio (test/reference), % (90% CI)” value [7, 14] was 102.0% and the “Cmax geometric mean ratio (test/reference), % (90% CI)” value [7, 14] was 136.6%. For the same compound, the absolute bioavailability [8, 15] was “at least 54.6%”, the fraction absorbed [8, 15] was “at least 68.7%” and the hepatic metabolism [8] was “minimal”. For the same compound, the major elimination pathway [8] was “renal excretion of unchanged talazoparib”, the “increase in relative bioavailability of talazoparib by potent P-gp inhibitors” value ([9]; data pooled from multiple clinical trials) was 45% and the “increase in relative bioavailability of talazoparib by potent P-gp inhibitors” value ([9]; first-in-human, Phase 2 and 3 studies) was 44.7%. For the same compound, the “induction or inhibition of enzymes or transporters” value [10] was “does not markedly induce or inhibit”, the “AUClast, adjusted geometric mean” value ([11]; Arm A talazoparib alone (reference), mixed effects model) was 98,532.3 h pg/mL and the CL/F ([11]; Arm A, single oral 0.5 mg talazoparib + itraconazole) was 12 3.3 (36.0) L/h. The Tmax ([11]; Arm A, single oral 0.5 mg talazoparib + itraconazole, median (range)) was 15 1.0 (0.5–4.0) h, the CL/F ([11]; Arm A, single oral 0.5 mg talazoparib alone) was 18 4.6 (42.0) L/h and the “increase in talazoparib AUCinf relative to talazoparib alone” value [11, 16] was ~ 56% and 56%. The “increase in talazoparib Cmax relative to talazoparib alone” value [11, 16] was ~ 40% and 40%, the AUC(0-inf) ([11]; human, plasma, oral, 0.5 mg) was 110 ng·h/mL and the Cmax ([11]; human, plasma, oral, 0.5 mg) was 2.09 ng/mL. For the same compound, the Cmax ([11]; human, plasma, po, 0.5 mg) was 2.09 ng/mL, the Vd/F ([11]; human, plasma, po, 0.5 mg) was 645 L and the half-life ([11]; human, plasma, po, 0.5 mg) was 101 h. For the same compound, the “AUCinf geometric mean ratio (test/reference), % (90% CI)” value [11, 17] was 156.2 (137.6, 177.4) %, the “AUClast geometric mean ratio (test/reference), % (90% CI)” value [11, 17] was 150.7 (136.5, 166.4) % and the “Cmax geometric mean ratio (test/reference), % (90% CI)” value [11, 17] was 139.9 (113.3, 172.9) %. The “patients who discontinued treatment due to AEs” value [12] was 11.8% and the “patients who discontinued treatment due to study-drug related AE” value [12] was 5.9%.
